Drawing on patent US9018214B2, “Bicyclic heterocycle compounds and their uses in therapy” (Astex Therapeutics Limited, priority 2011, dated 2015), this text covers EC50, IC50 and inhibition for 18 compounds.

Assay [1] deals with MDA-MB-231 (human breast carcinoma). As to the kind of experiment: Anti-proliferative activity, Alamar Blue assay, MDA-MB-231. In kind it is cell-based. Conditions: MDA-MB-231, 72 h, read-out: EC50, inhibition of cell growth. (In general: Alamar Blue is a resazurin reagent that responds to reducing activity.)
The target in assay [2] is BIR3 domain of human cIAP-1 (residues 267-363) (Homo sapiens (Human), UniProt Q13490). As to the kind of experiment: cIAP-1 in vitro competitive displacement binding assay (fluorescence polarization; Probe A AVPIK(5&6FAM)-amide or Probe B AbuRPFK(5&6FAM)-amide).
In assay [3] the test system is EVSA-T (human breast carcinoma). As to the kind of experiment: Anti-proliferative activity, Alamar Blue assay, EVSA-T. In kind it is cell-based. The note with it: Homo sapiens, EVSA-T; for EC50: read-out: EVSA-T prolif (EC50).
For assay [4], the target named is BIR3 domain of human XIAP (residues 252-350) (Homo sapiens (Human), UniProt P98170). As to the kind of experiment: XIAP in vitro competitive displacement binding assay (fluorescence polarization). The note with it: for IC50: read-out: IC50 or PI Xiap: IC50. (In general: Fluorescence polarisation rises when a labelled molecule tumbles more slowly, as on binding a larger partner.)

The mark [5] stands for this setting: Probe B AbuRPFK(5&6FAM)-amide, read-out: IC50 or PI cIAP1: IC50.
Setting [6] is: 3 h, read-out: IC50 or PI cIAP1: PI.
Setting [7] is: 1 h, read-out: IC50 or PI Xiap: PI.
The mark [8] stands for this setting: 3 h, Probe B, @ 0.012 μM, read-out: IC50 or PI cIAP1: PI.
The mark [9] stands for this setting: 1 h, @ 0.04 μM, read-out: IC50 or PI Xiap: PI.
The mark [10] stands for this setting: read-out: IC50 or PI cIAP1: IC50.

Structures can show the parent of a compound that is named as a salt. Where two headings read alike, the source gives them in different places.

One may read the EC50 as the concentration that produces a half-maximal response. What is called IC50 is the concentration needed to halve the response being measured. In the case of `COC[C@H]1CN[C@H](C)CN1CC(=O)N1CC(C)(C)c2cc(F)c(S(=O)(=O)c3ccccc3)cc21` [Example 58, 1-(6-Benzene-sulfonyl-5-fluoro-3,3-dimethyl-2,3-dihydro-indol-1-yl)-2-((2R,5R)-2-methoxymethyl-5-methyl-piperazin-1-yl)-ethanone hydrochloride salt], the EC50 in assay [1] was < 10 µM; in assay [3] (72 h) it was 0.17 µM. Besides, in assay [2] (setting [5]), the IC50 is 0.045 µM.
`COC[C@H]1CN[C@H](C)CN1CC(=O)N1CC(C)(C)c2cc(F)c(S(=O)(=O)c3ccc(OC)cc3)cc21` [Example 60, 1-[5-Fluoro-6-(4-methoxy-benzenesulfonyl)-3,3-dimethyl-2,3-dihydro-indol-1-yl]-2-((2R,5R)-2-methoxymethyl-5-methyl-piperazin-1-yl)-ethanone dihydrochloride salt]: the EC50 in assay [1] was < 10 µM; in assay [3] (72 h), 0.69 µM.
Taken in the same sequence, the figures for `COC[C@H]1CN[C@H](C)CN1CC(=O)N1CC(C)(C)c2cnc(Cc3ccccc3)cc21` [Example 63, 1-(6-Benzyl-3,3-dimethyl-2,3-dihydro-pyrrolo[3,2-c]pyridin-1-yl)-2-((2R,5R)-2-methoxy-methyl-5-methyl-piperazin-1-yl)-ethanone hydrochloride salt] were < 10 µM and 0.1 µM.
`COC[C@H]1CN[C@H](C)CN1CC(=O)N1CC(C)(C)c2ccc(Cc3ccccc3)cc21` [Example 94, 1-(6-Benzyl-3,3-dimethyl-2,3-dihydro-1H-indol-1-yl)-2-[(2R,5R)-2-(methoxy-methyl)-5-methyl-piperazin-1-yl]ethan-1-one, hydrochloride salt]: the EC50 in assay [1] was < 10 µM; in assay [3] (72 h), 0.33 µM. For the same compound, the IC50 in assay [2] (setting [5]) amounted to 0.014 µM.
On to `COC[C@H]1CN[C@H](C)CN1CC(=O)N1CC(C)(C)c2cnc(Oc3c(C)cccc3C)cc21` [Example 119, 1-[6-(2,6-Dimethylphenoxy)-3,3-dimethyl-1H,2H,3H-pyrrolo[3,2-c]pyridin-1-yl]-2-[(2R,5R)-2-(methoxymethyl)-5-methylpiperazin-1-yl]ethan-1-one hydrochloride], for which the EC50 is < 10 µM in assay [1] and 0.87 µM in assay [3] (72 h). In addition, in assay [2] (setting [5]), the IC50 is 0.096 µM.
Take `C[C@@H]1CN(CC(=O)N2CC(C)(C)c3ncc(Cc4ccccc4F)cc32)[C@@H](CN2CCOCC2)CN1` [Example 247, 1-{6-[(2-Fluorophenyl)methyl]-3,3-dimethyl-1H,2H,3H-pyrrolo[3,2-b]pyridin-1-yl}-2-[(2R,5R)-5-methyl-2-(morpholin-4-ylmethyl)piperazin-1-yl]ethan-1-one dihydrochloride]: the inhibition at […] in assay [2] (setting [6]) turned out to be 80%. In addition, the EC50 in assay [3] (72 h) amounted to 0.033 µM. Further, the IC50 in assay [4] came out at 0.066 µM.
On to `CCCC(F)(F)c1cnc2c(c1)N(C(=O)CN1C[C@@H](C)NC[C@@H]1CN1CCOC[C@H]1CC)CC2(C)C` [Example 248, 1-[6-(1,1-Difluorobutyl)-3,3-dimethyl-1H,2H,3H-pyrrolo[3,2-b]pyridin-1-yl]-2-[(2R,5R)-2-{[(3R)-3-ethylmorpholin-4-yl]methyl]-5-methylpiperazin-1-yl]ethan-1-one dihydrochloride], for which the inhibition at […] in assay [2] (setting [6]) amounted to 91%. In addition, the EC50 in assay [3] (72 hours, Alamar Blue) was determined as 0.01 µM. In addition, the inhibition at 0.04 µM in assay [4] (setting [7]) turned out to be 69%.
On to `C[C@@H]1CN(CC(=O)N2CC(C)(C)c3ncc(Cc4ccccc4F)cc32)[C@@H](CN2CCCC2=O)CN1` [Example 249, 1-{[(2R,5R)-1-(2-{6-[(2-Fluorophenyl)methyl]-3,3-dimethyl-1H,2H,3H-pyrrolo[3,2-b]pyridin-1-yl}-2-oxoethyl)-5-methylpiperazin-2-yl]methyl}pyrrolidin-2-one hydrochloride], for which the inhibition at […] in assay [2] (setting [8]) was found to be 90%. The EC50 in assay [3] (72 hours, Alamar Blue) was found to be 0.01 µM. Further, the inhibition at 0.04 µM in assay [4] (setting [9]) stood at 56%.
Take `C[C@@H]1CN(CC(=O)N2CC(C)(C)c3cnc(Cc4ccc(F)cc4)cc32)[C@@H](CN2CCOC[C@H]2C)CN1` [Example 251, 1-{6-[(4-Fluorophenyl)methyl]-3,3-dimethyl-1H,2H,3H-pyrrolo[3,2-c]pyridin-1-yl}-2-[(2R,5R)-5-methyl-2-{[(3R)-3-methylmorpholin-4-yl]methyl}piperazin-1-yl]ethan-1-one dihydrochloride]: the inhibition at […] in assay [2] (setting [6]) was 99%. For the same compound, the EC50 in assay [3] (72 hours, Alamar Blue) came out at 0.00065 µM. In addition, the inhibition at 0.04 µM in assay [4] (setting [7]) is 68%.
Regarding `CCCC(F)(F)c1cc2c(cn1)C(C)(C)CN2C(=O)CN1C[C@@H](C)NC[C@@H]1CN1CCOC[C@H]1C` [Example 252, 1-[6-(1,1-Difluorobutyl)-3,3-dimethyl-1H,2H,3H-pyrrolo[3,2-c]pyridin-1-yl]-2-[(2R,5R)-5-methyl-2-{[(3R)-3-methylmorpholin-4-yl]methyl}piperazin-1-yl]ethan-1-one diydrochloride], in assay [2] (setting [8]), the inhibition at […] was 91%. Further, the EC50 in assay [3] (72 hours, Alamar Blue) was 0.004 µM. Also, the inhibition at 0.04 µM in assay [4] (setting [9]) turned out to be 72%.
As to `CC[C@@H]1COCCN1C[C@H]1CN[C@H](C)CN1CC(=O)N1CC(C)(C)c2ncc(C(C)(F)F)cc21` [Example 253, 1-[6-(1,1-Difluoroethyl)-3,3-dimethyl-1H,2H,3H-pyrrolo[3,2-b]pyridin-1-yl]-2-[(2R,5R)-2-{[(3R)-3-ethylmorpholin-4-yl]methyl}-5-methylpiperazin-1-yl]ethan-1-one dihydrochloride], the IC50 in assay [2] was < 1 µM; in assay [2] (setting [10]), 0.017 µM; in assay [4], 0.05 µM. Also, in assay [3] (72 h), the EC50 is 0.051 µM.
Consider `CC[C@@H]1COCCN1C[C@H]1CN[C@H](C)CN1CC(=O)N1CC(C)(C)c2ncc(Cc3ccc(F)cc3)cc21` [Example 254, 2-[(2R,5R)-2-{[(3R)-3-Ethylmorpholin-4-yl]methyl}-5-methylpiperazin-1-yl]-1-{6-[(4-fluorophenyl)methyl]-3,3-dimethyl-1H,2H,3H-pyrrolo[3,2-b]pyridin-1-yl}ethan-1-one dihydrochloride], for which, in assay [2] (setting [6]), the inhibition at […] came to 98%. In addition, the EC50 in assay [3] (72 hours, Alamar Blue) was 0.0019 µM. The inhibition at 0.04 µM in assay [4] (setting [7]) stood at 51%.
On to `CC[C@@H]1COCCN1C[C@H]1CN[C@H](C)CN1CC(=O)N1CC(C)(C)c2ncc(C(F)(F)CC)cc21` [Example 255, 1-[6-(1,1-Difluoropropyl)-3,3-dimethyl-1H,2H,3H-pyrrolo[3,2-b]pyridin-1-yl]-2-[(2R,5R)-2-{[(3R)-3-ethylmorpholin-4-yl]methyl}-5-methylpiperazin-1-yl]ethan-1-one dihydrochloride], for which the IC50 in assay [2] is < 1 µM; in assay [2] (setting [10]), 0.014 µM. For the same compound, the EC50 in assay [3] (72 h) was 0.032 µM. In assay [4] (setting [7]), the inhibition at 0.04 µM came to 49%.
As to `CCC(F)(F)c1cnc2c(c1)N(C(=O)CN1C[C@@H](C)NC[C@@H]1CN1CCOC[C@H]1COC)CC2(C)C` [Example 256, 1-[6-(1,1-Difluoropropyl)-3,3-dimethyl-1H,2H,3H-pyrrolo[3,2-b]pyridin-1-yl]-2-[(2R,5R)-2-{[(3R)-3-(methoxymethyl)morpholin-4-yl]methyl}-5-methylpiperazin-1-yl]ethan-1-one dihydrochloride], the IC50 was < 1 µM in assay [2], 0.024 µM in assay [2] (setting [10]) and 0.053 µM in assay [4]. Moreover, the EC50 in assay [3] (72 h) was found to be 0.078 µM.
Turning to `CCCC(F)(F)c1cnc2c(c1)N(C(=O)CN1C[C@@H](C)NC[C@@H]1CN1CCOC[C@H]1C)CC2(C)C` [Example 260, 1-[6-(1,1-Difluoro-butyl)-3,3-dimethyl-2,3-dihydro-pyrrolo[3,2-b]pyridin-1-yl]-2-[(2R,5R)-5-methyl-2-((R)-3-methyl-morpholin-4-ylmethyl)-piperazin-1-yl]-ethanone dihydrochloride], in assay [2] (setting [6]), the inhibition at […] worked out at 90%. For the same compound, in assay [3] (72 hours, Alamar Blue), the EC50 worked out at 0.0044 µM. In assay [4] (setting [7]), the inhibition at 0.04 µM amounted to 73%.
Turning to `C[C@@H]1CN(CC(=O)N2CC(C)(C)c3ncc(Cc4ccccc4F)cc32)[C@@H](CN2CCOC[C@H]2C)CN1` [Example 261, 1-[6-(2-Fluoro-benzyl)-3,3-dimethyl-2,3-dihydro-pyrrolo[3,2-b]pyridin-1-yl]-2-[(2R,5R)-5-methyl-2-((R)-3-methyl-morpholin-4-ylmethyl)-piperazin-1-yl]-ethanone dihydrochloride], the inhibition at […] in assay [2] (setting [6]) worked out at 96%. In assay [3] (72 hours, Alamar Blue), the EC50 came to 0.0021 µM. In assay [4] (setting [7]), the inhibition at 0.04 µM turned out to be 55%.
As to `C[C@@H]1CN(CC(=O)N2CC(C)(C)c3ncc(Cc4ccc(F)cc4F)cc32)[C@@H](CN2CCOC[C@H]2C)CN1` [Example 264, 1-[6-(2,4-Difluoro-benzyl)-3,3-dimethyl-2,3-dihydro-pyrrolo[3,2-b]pyridin-1-yl]-2-[(2R,5R)-5-methyl-2-((R)-3-methyl-morpholin-4-ylmethyl)-piperazin-1-yl]-ethanone, dihydrochloride], the inhibition at […] in assay [2] (setting [6]) amounted to 98%. The EC50 in assay [3] (72 hours, Alamar Blue) stood at 0.001 µM. Further, the inhibition at 0.04 µM in assay [4] (setting [7]) turned out to be 68%.
As to `CC[C@@H](C(=O)N1CC(C)(C)c2ccc(C#N)cc21)N1CCN[C@H](C)C1` [Example 266, 3,3-Dimethyl-1-[(2S)-2-[(3R)-3-methylpiperazin-1-yl]butanoyl]-2,3-dihydro-1H-indole-6-carbonitrile, hydrochloride salt], in assay [2] (setting [6]), the inhibition at 50 µM was 24%. Also, in assay [3] (at 10 μM, read-out: EVSA-T prolif: % inhibition), the inhibition at 10 µM is -20%. For the same compound, in assay [4] (setting [7]), the inhibition at 150 µM is -6%.
